Measured values: the supplement of paper PMC13380429

How the values were obtained:
Conditions in all cases: 72 h
Calu-3 [1] = experiment: relative viability EC50 (midpoint between 100% and the lowest measured viability); higher = less toxic
Vero E6 [2] = experiment: as above
U2OS [3] = experiment: as above
HepG2 [4] = experiment: as above
Caco-2 [5] = experiment: as above
Calu-3 [6] = experiment: drug sensitivity score (DSS) for viability; higher = more toxic; extreme values may be limits of the assay
Vero E6 [7] = experiment: as above
U2OS [8] = experiment: as above
HepG2 [9] = experiment: as above
Caco-2 [10] = experiment: as above
Calu-3 [11] = experiment: cell viability relative to DMSO; higher = less toxic
Vero E6 [12] = experiment: as above
U2OS [13] = experiment: as above
HepG2 [14] = experiment: as above
Caco-2 [15] = experiment: as above

SMILES	relative viability EC50 (Calu-3 [1]) [µM]	relative viability EC50 (Vero E6 [2]) [µM]	relative viability EC50 (U2OS [3]) [µM]	relative viability EC50 (HepG2 [4]) [µM]	relative viability EC50 (Caco-2 [5]) [µM]	drug sensitivity score (Calu-3 [6])	drug sensitivity score (Vero E6 [7])	drug sensitivity score (U2OS [8])	drug sensitivity score (HepG2 [9])	drug sensitivity score (Caco-2 [10])	cell viability (Calu-3 [11]; 1 nM) [%]	cell viability (Calu-3 [11]; 10 nM) [%]	cell viability (Calu-3 [11]; 100 nM) [%]	cell viability (Calu-3 [11]; 1000 nM) [%]	cell viability (Calu-3 [11]; 10000 nM) [%]	cell viability (Vero E6 [12]; 1 nM) [%]	cell viability (Vero E6 [12]; 10 nM) [%]	cell viability (Vero E6 [12]; 100 nM) [%]	cell viability (Vero E6 [12]; 1000 nM) [%]	cell viability (Vero E6 [12]; 10000 nM) [%]	cell viability (U2OS [13]; 1 nM) [%]	cell viability (U2OS [13]; 10 nM) [%]	cell viability (U2OS [13]; 100 nM) [%]	cell viability (U2OS [13]; 1000 nM) [%]	cell viability (U2OS [13]; 10000 nM) [%]	cell viability (HepG2 [14]; 1 nM) [%]	cell viability (HepG2 [14]; 10 nM) [%]	cell viability (HepG2 [14]; 100 nM) [%]	cell viability (HepG2 [14]; 1000 nM) [%]	cell viability (HepG2 [14]; 10000 nM) [%]	cell viability (Caco-2 [15]; 1 nM) [%]	cell viability (Caco-2 [15]; 10 nM) [%]	cell viability (Caco-2 [15]; 100 nM) [%]	cell viability (Caco-2 [15]; 1000 nM) [%]	cell viability (Caco-2 [15]; 10000 nM) [%]
NS(=O)(=O)c1cc2c(cc1Cl)NC(C1CC3C=CC1C3)NS2(=O)=O (stereo not given) [cyclothiazide]	> 10	> 10	> 10	> 10	> 10	0	0	0	0	0	101	96.7	95.3	112	100	94.4	102	91.2	92.5	105	93.7	95.2	99.9	94.3	97.7	90.8	104	88.9	99.9	93.8	92.4	89	103	81.8	91.2
O=c1ccc2ccc(O)c(O)c2o1 [daphnetin]	> 10	> 10	> 10	> 10	> 10	0	0	0	3.3	0	101	111	102	99.9	110	106	100	98.3	93	101	111	108	101	102	99.4	102	105	87.3	87.5	82.1	105	105	104	107	90.5
C[C@]1(COc2ccc(N3CCC(Oc4ccc(OC(F)(F)F)cc4)CC3)cc2)Cn2cc([N+](=O)[O-])nc2O1 [delamanid]	> 10	> 10	> 10	> 10	> 10	0	0	0	0	0	93	98	103	91.9	102	104	102	101	102	99.8	105	98.2	103	98.3	102	96.5	97.8	92.6	99.5	104	103	96.9	103	90.5	94.3
CC(C)=CCC/C(C)=C/CC/C(C)=C/CC[C@]1(C)CCc2cc(O)cc(C)c2O1 [delta-tocotrienol]	> 10	> 10	> 10	> 10	> 10	0	0	0	0	0	94.6	102	93.2	101	113	107	93.1	104	96.9	108	97.5	99.8	98.2	102	97.9	90.7	85.3	98.6	91	97.1	99.3	99.1	81.7	97.1	105
CC(=O)OCC(=O)[C@H]1CC[C@H]2[C@@H]3CCC4=CC(=O)CC[C@]4(C)[C@H]3CC[C@]12C [deoxycorticosterone-acetate]	> 10	> 10	> 10	> 10	> 10	0	0	0	0	0	98.4	99.8	100	91.9	107	100	99.8	96.2	98.7	91.7	96.8	100	103	102	99.2	107	110	95.9	91.5	107	85.4	114	100	122	101
CN(C)CCCSC(=N)N [dimaprit]	> 10	> 10	> 10	> 10	> 10	0	0	0	0	0	109	103	109	99.1	96.7	99.9	98.8	103	100	96.2	98.5	103	95.1	96.2	96.8	99	106	99.1	104	93.2	99	102	93.9	96.3	97.4
C[C@@H](O)[C@H]1C(=O)N2C(C(=O)O)=C(S[C@@H]3CN[C@H](CNS(N)(=O)=O)C3)[C@H](C)[C@H]12 [doripenem]	> 10	> 10	> 10	> 10	> 10	0	0	0	0	0	93.1	85.6	84	95.1	94.4	104	104	97.3	99.4	97.3	95.6	94.6	95.1	95.2	94.7	104	106	91	99.9	96.8	103	98	95.2	92.3	107
CCN(CC)CCOC(=O)C(c1ccccc1)C1CCCCC1 (stereo not given) [drofenine]	> 10	> 10	> 10	> 10	> 10	0	0.1	0	2.6	0	107	110	109	97.3	98	103	110	100	107	85.8	102	99.1	100	98.2	102	93.7	87.5	86.6	86.9	87.8	102	96	99.3	88.2	111
CCCCOc1ccc(C(=O)CCN2CCCCC2)cc1 [dyclonine]	> 10	> 10	> 10	> 10	> 10	0	0	0	0	1.1	96	109	99.2	109	102	94.7	102	99	98.6	97.3	99.9	103	94.3	100	95.5	96.6	93.3	106	98	94.7	102	108	101	85.7	94
Nc1nc(=O)n([C@@H]2CS[C@H](CO)O2)cc1F [emtricitabine]	> 10	> 10	> 10	> 10	> 10	0	0	0	0.4	0	104	88.8	105	96.2	110	102	102	99.5	104	100	97.2	104	92.1	98	98.9	104	105	102	97.5	85.5	107	108	108	98.8	109
OC[C@@H](O)[C@@H](O)CO [erythritol]	> 10	> 10	> 10	> 10	> 10	0	0	0	0	0	102	97.9	112	97	98.7	105	102	101	102	98.1	94.8	98.1	97.8	99.6	97.7	108	116	100	97.1	98.9	94.1	101	97.9	91	100
O=S(=O)(O)c1cc(O)ccc1O [etamsylate]	> 10	> 10	> 10	> 10	> 10	0	0	0	0	0	95.6	100	106	95	95.3	96.2	94.5	104	94.5	106	92.5	98.3	95.7	99	104	107	105	110	108	97.8	89.7	100	91	98.8	92.4
CC(C)(Oc1ccc(Cl)cc1)C(=O)OCCOC(=O)c1cccnc1 [etofibrate]	> 10	> 10	> 10	> 10	> 10	0	0	0	0	0	86.8	89.6	99.1	111	101	93.5	99.7	91.7	93.9	98.5	101	94.1	102	94.9	96.6	92.7	106	96	99.1	111	95.3	88.1	94	92.1	105
COc1cc2c(Oc3ccc(NC(=O)C4(C(=O)Nc5ccc(F)cc5)CC4)cc3F)ccnc2cc1OCCCN1CCOCC1 [foretinib]	1.92	1.52	1.55	0.965	1.37	7.8	9.4	9.3	11.9	9.5	99.7	98.6	96.9	84.7	5.1	102	97.9	102	74.3	0.2	103	99.1	94.2	75.1	0	94.7	95.7	101	47.8	0.1	102	98.6	97.2	70.3	5.3
